What was measured:
Caco2 efflux = type: in vitro ADME; settings: human, Caco-2; Caco2, Papp B to A / Papp A to B, pH 7.4 at side A
Excerpt: Efflux was studied in the same Caco2 cells with the modification that HBSS buffer pH 7.4 was used on both sides of the monolayer. The permeability was studied in the apical to basolateral direction (Papp AB) as well as in the basolateral to apical direction and (Papp BA). Efflux ratios were derived from the following equation: Papp BA/Papp AB.

In vivo rat PK = settings: female, Sprague Dawley, plasma, intravenous; rat in vivo; read-out: Rat CL (in vivo clearance)
Experimental: Two days prior to dosing, female Sprague Dawley rats were prepared by cannulation of the left carotid artery for blood sampling and by cannulation of the right jugular vein for intravenous administration. The catheters were filled with heparin (100 IU/mL), exteriorized at the nape of the neck and sealed. The surgery was performed under isoflurane (Forene®, Abbott) anesthesia. After surgery the rats were housed individually and had free access to food and water. About 16 h prior to dosing the animals were deprived of food, and fasted until 4 h after dosing. The rats had free access to drinking water during the experiment. On the experiment day, the test item formulation was administered orally by gavage or intravenously in the jugular vein. At pre-defined time points, blood samples of about 0.150 mL were withdrawn from the carotid artery up to 24h after dosing. A total of 10 samples were withdrawn. The blood samples were collected in heparinized plastic tubes and centrifuged, within 30 min, for five min at 10 000 g and +4°C. The plasma was transferred to a 96 well plate and stored at -20°C until analysis by LC/MS/MS. The studies were approved by the Göteborg Animal Research Ethical Board.

Human FXIa = biological target: T1, Human FXIa (Homo sapiens, UniProt P03951); assay: FXIa enzymatic chromogenic assay; type: biochemical
T1 construct: purchased HTI, Essex Junction, USA
T1 sequence (P03951 388-625): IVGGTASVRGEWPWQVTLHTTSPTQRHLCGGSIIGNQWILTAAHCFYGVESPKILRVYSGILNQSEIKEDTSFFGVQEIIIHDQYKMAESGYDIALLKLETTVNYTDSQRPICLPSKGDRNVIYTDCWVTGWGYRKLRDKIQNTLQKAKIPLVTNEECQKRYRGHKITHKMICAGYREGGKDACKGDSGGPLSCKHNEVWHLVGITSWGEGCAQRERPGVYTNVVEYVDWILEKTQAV
T1 sequence (P03951 19-387): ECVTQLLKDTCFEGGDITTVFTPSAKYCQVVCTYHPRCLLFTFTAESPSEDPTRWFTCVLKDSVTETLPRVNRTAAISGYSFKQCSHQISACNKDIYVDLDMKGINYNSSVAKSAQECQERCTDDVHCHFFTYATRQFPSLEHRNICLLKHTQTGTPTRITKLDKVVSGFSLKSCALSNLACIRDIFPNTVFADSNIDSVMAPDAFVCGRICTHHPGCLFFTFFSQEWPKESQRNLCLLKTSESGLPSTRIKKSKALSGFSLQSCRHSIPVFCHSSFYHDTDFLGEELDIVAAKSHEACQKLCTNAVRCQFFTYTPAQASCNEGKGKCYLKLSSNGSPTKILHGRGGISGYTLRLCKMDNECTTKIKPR
Experimental: (§1) Enzymatic assay. […] Selected compounds were also screened against other serine proteases to evaluate their selectivity profiles.
(§2) Once the compounds were synthesized and characterized, enzymatic assays were performed to evaluate the inhibitory activity of the resulting compounds against FXIa and other serine proteases. […] IC50 values for the compounds were determined using equation: Q= V/(1+([I]/IC50)^n) Q denotes the assay readout, V denotes the uninhibited velocity of the enzyme, [I] denotes the inhibitor concentration, n denotes the slope and IC50 is the inhibitor concentration at V/2.
[S] denotes the substrate concentration.

rat hepatocytes = assay: Rat hepatocyte metabolic stability assay; type: in vitro ADME
Experimental: Rat hepatocyte metabolic stability was determined in accordance with the method described by Jacobson et al.. Cryo preserved hepatocytes at a concentration of 10^6 viable cells/mL were used. After thawing, hepatocytes were incubated for 10 min to warm to 37°C and test compounds, dissolved in acetonitrile, were added to give a final concentration of 1 μM. At 0.5, 5, 15, 30, 45, 60, 80, 100 and 120 min, the incubation system was mixed and 20 μL aliquots were transferred at each time point to wells in a separate plate filled with 80 μL acetonitrile to stop the reaction. The quenching plate was then vortexed followed by centrifugation, and supernatants were analyzed by LC/MS/MS. Peak areas were determined from extracted ion chromatograms, and the in vitro intrinsic clearance (in vitro CLint, in μL/min/10^6 cells) of parent compound was calculated from the slope in the regression analysis of the natural logarithm of parent concentration vs. time curve.

Caco2 cells = assay: Caco2 permeability; type: in vitro ADME; settings: measured at pH 6.5
Experimental: A monolayer of Caco2 cells, cultured on semi-permeable polycarbonate surfaces, was used to study the permeability in the apical to basolateral direction. The process was atomized by a robotic Tecan EVO platform (Männerdorf, Switzerland) and 24-transwell plates from Costar (Cambridge, MA, USA). HBSS buffer pH 7.4 was dispensed to the basal side of the monolayer. […] Samples for quantitative analysis by LC/MS/MS were withdrawn before the addition of the test substrate and at 45 and 120 min post addition of the test substrate. During incubation the transwell plates were placed in a shaking incubator at 37°C between sampling. The peak areas were exported to Excel where Papp-values and recoveries were calculated. Twenty-two reference compounds with known human oral bioavailability were used to establish a correlation curve with Papp versus the fraction of the oral dose absorbed (fa).

[1] = biological target: Recombinant human trypsin (Homo sapiens, UniProt P07477); assay: biochemical; settings: read-out: Trypsin % inhibition at 99 μM
Experimental: as §1, §2
Trypsin. Recombinant human trypsin was from Polymun, Vienna, Austria.

O=C(N[C@@H](Cc1ccccc1)C(=O)NCc1cc(=O)[nH]c2ccc(Cl)cc12)c1ccc2[nH]c(=O)cc(O)c2c1 [Compound 13, (S)-N-(1-{(6-Chloro-2-oxo-1,2-dihydroquinolin-4-yl)methylamino}-1-oxo-3-phenylpropan-2-yl)-4-hydroxy-2-oxo-1,2-dihydroquinoline-6-carboxamide]
efflux ratio (Caco2 efflux): > 4.6 | clearance (In vivo rat PK): 130 mL/min/kg | IC50 (Human FXIa): 1 nM | ligand efficiency (LE) (Human FXIa; FXIa): 0.32 | ΔG (binding free energy) (Human FXIa; FXIa, term of the ΔG link equation): -12.7 kcal/mol | ΔG link (linker contribution) (Human FXIa; compound 13 relative to fragments 5 and 15): -3.13 kcal/mol | Ki (Human FXIa; read-out: FXIa Ki): 0.5 nM | Rat CLint (rat hepatocytes): 22 μL/min/ 1·10^6 cells | Caco2 A to B permeability (Caco2 cells): < 0.28 1·10^-6 cm/s | inhibition at 99 µM [1]: 12%

— PMC4309560, “Creating Novel Activated Factor XI Inhibitors through Fragment Based Lead Generation and Structure Aided Drug Design” (PLoS ONE, 2015)
